# From US10912819B2, “Neuroprotective peptides derived from activity-dependent neuroprotective protein for treatment of neurological diseases” (priority 2016, dated 2021)
# Key:
# Adnp^+/− mice [1] = assay: Elevated plus maze test; format: in vivo; conditions: male mice, 5 min, NAP new formulation (CB); NAP-treated vs Adnp^+/− p<0.001
# Description: FIG. 4. […] The relative time spent in the open/closed arms for 5 min is presented (n=9-12 per group). Data are expressed as mean±SEM. D2 calculates the exploration time of the open arms (a) and the exploration time of the closed arms (b).
# Experiments performed as we described in Malishkevich et al., 2015 (37) and Amram et al., Mol Psychiatry. 2016 October; 21(10):1467-76 (7). 3-6 month-old male mice were used, drug application (0.5 μg/5 μl/mouse) was once daily, for one month and then behavioral assays were initiated together with drug application. In experiments with the vehicle termed DD (NAP-benzalkonium), drug application was at 2 months of age and continued as above. Open field experiments (16, 17) and elevated plus maze evaluations (18) were carried out as before.
# Experiments were performed as described (18), assessing the different times spent in open arms (indicative of exploratory behavior) versus closed arms (indicative of anxious behavior) in the elevated plus maze (FIG. 4).
# [2] = tested on: amnestic mild cognitive impairment patients; conditions: clinical study; cited from earlier work
# Foxp2 = Foxp2 mRNA expression in the tongue, quantitative real-time PCR; format: in vivo; conditions: 4-month-old mice treated with NAP/DD, normalized to Gapdh; increased in Adnp-deficient mice
# Description: (B) Foxp2 (the language-linked gene) expression in the tongue is increased in Adnp-deficient mice and is normalized by NAP. Tongue total RNA was extracted from 4-month-old mice (treated with NAP/DD as above) and analyzed for Foxp2 and Gapdh mRNA expression by quantitative real-time PCR (n=3-7 animals per experimental group). Gapdh served as a normalizing transcript. […] Two-way ANOVA analysis was performed using SigmaPlot. Sexual dichotomy determined by t-test analysis was also observed for the increased Foxp2 expression between Adnp males and females (**p<0.01).
# Quantitative reverse transcription real time polymerase chain reaction (RT-PCR) was performed as before (18, 37).
# Adnp^+/− mice [3] = assay: Odor discrimination test; format: in vivo
# Description: As social memory depends on olfactory function, NAP treatment was also tested in odor discrimination test. Odors were presented on a suspended cotton swab to the test mouse placed into the clean cage with fresh shavings. Each mouse was tested during three consecutive 2-min periods for each odor, with 2-min intervals between presentations. The x axis indicates the consecutive number of the odor exposure period. The time that the mouse smelled the swab was recorded (beginning whenever the animal oriented its nostrils toward the cotton swab, within 2 cm or less). (Malishkevich et al., Transl Psychiatry (2015) 5, e501; Amram et al., Mol Psychiatry. 2016 10:1467-76).
# Adnp^+/− mice [4] = assay: Hanging wire test; format: in vivo
# Excerpt: The hanging wire test measures the strength of the mouse paws by using the latency to fall off from an inverted cage lid (placed 50 cm above the surface) onto a soft bedding (maximum time 120 sec). Data are expressed as mean±SEM.
# [5] = tested on: microtubule end binding protein 1 and 3 (EB1 and EB3) comets in living N1E-115; assay: Live imaging of EB1/EB3 comets in N1E-115 cells carrying ADNP mutations; format: cell-based; conditions: p.Tyr719*/p.Lys404Valfs*31 ADNP, 4 hours NAP treatment (10^−12M)
# Excerpt: FIG. 10: NAP ameliorates cytoskeletal deficiencies associated with ADNP mutations. Human ADNP mutated cDNA was cloned into plasmids as described (Ivashko-Pachima et al., Molecular Psychiatry 2017, in press). The mutations cloned included the p.Tyr719* ADNP, the most common ADNP mutation (Gozes et al., Frontiers in Endocrinology, under revisions) and the p.Lys408Valfs31*, the first de novo ADNP mutation identified (reviewed in Gozes et al., J Mol Neurosci (2015) 56:751-757.
# The effects of ADNP carried p.Tyr719*/p.Lys404Valfs*31 mutation on microtubule end binding protein 1 and 3 (EB1 and EB3) comets in living N1E-115 is shown. For experimental details see, Ivashko-Pachima et al., Molecular Psychiatry 2017, in press. (A) Live imaging of N1E-115 cells. EB1-RFP (red) co-transfected with full ADNP/p.Tyr719*/p.Lys404Valfs*31 carrying plasmids before and after 4 hours NAP treatment (10^−12M) (panel A1). […] (B-C) EB1 Quantification of average track length, comet speed, comet length and number of comets/100 μm^2 (total number of comets: ADNP (full) before treatment n=2639/1 I cells, ADNP (full) after NAP treatment n=3107/15cells, ADNP p.Tyr719* before treatment n=1910/14cells, ADNP p.Tyr719* after NAP treatment n=3990/16cells, ADNP p.Lys404Valfs*31 before treatment n=1082/6cells, ADNP p.Lys404Valfs*31 after NAP treatment n=694/5cells). […]
# [6] = 5-month-old mice, 0.5 μg NAP/mouse/day intranasal in CB, 3 weeks, p<0.05
compound,measurement,setting,value
CC[C@H](C)[C@H](NC(=O)[C@H](CO)NC(=O)[C@@H](NC(=O)[C@@H]1CCCN1C(=O)[C@H](C)NC(=O)[C@@H](N)CC(N)=O)C(C)C)C(=O)N1CCC[C@H]1C(=O)N[C@@H](CCC(N)=O)C(=O)O [NAP],increased anxiety: relative time spent in open/closed arms,Adnp^+/− mice [1],ameliorated
same,cognitive scores,[2],increase in cognitive scores
same,"Foxp2 expression in the tongue, females",Foxp2,decreasing it
same,"Foxp2 expression in the tongue, males",Foxp2,normalizing it
same,"general olfaction ability (AUC), males","Adnp^+/− mice [3]; 2-month-old mice (n=3-4), NAP intranasal in DD, 8 weeks, two-way ANOVA p=0.046",main effect for treatment
same,"general olfaction ability (AUC), females","Adnp^+/− mice [3]; 5-month-old mice, NAP intranasal in CB, 9 weeks, NAP vs vehicle p<0.01",significant difference
same,"general olfaction ability (AUC), males","Adnp^+/− mice [3]; 5-month-old mice, NAP intranasal in CB, 9 weeks, NAP vs vehicle p<0.05",significant difference
same,general change in olfactory behavior,"Adnp^+/− mice [3]; FIG. 3D-G, both sexes, CB and DD",apparently normalized
same,"latency to fall, males","Adnp^+/− mice [4]; 2-month-old mice, 0.5 μg NAP/mouse/day intranasal in DD, 5 weeks, p<0.01",improved
same,"latency to fall, females",Adnp^+/− mice [4]; [6],significant difference
same,"latency to fall, males",Adnp^+/− mice [4]; [6],significant difference
same,changes in microtubule dynamics (EB1/EB3 comets) caused by ADNP mutations,[5],"ameliorated, in part"
